# Results: article PMC8571316 (Scientific Reports, 2021)
# Peptide text beside a SMILES is read from it. * marks the point of attachment. Biotin = O=C1N[C@H]2[C@H](CS[C@H]2CCCCC(=O)*)N1; PEG4 = NCCOCCOCCOCCOCCC(=O)O
# Test system: Influenza HA
# Format: binding
row,Compound,"cross-reactivity (selectivity of binding, in words)"
1,CC(C)C[C@H](NC(=O)[C@H](CC(=O)O)NC(=O)[C@H](CCC(=O)O)NC(=O)[C@H](Cc1c[nH]c2ccccc12)NC(=O)[C@H](CCC(=O)O)NC(=O)[C@H](CC(C)C)NC(=O)[C@H](CC(N)=O)NC(=O)[C@H](Cc1ccccc1)NC(=O)[C@@H](NC(=O)[C@H](Cc1ccccc1)NC(=O)[C@H](CC(C)C)NC(=O)[C@H](Cc1ccccc1)NC(=O)[C@H](CC(C)C)NC(=O)[C@@H](NC(=O)[C@H](Cc1c[nH]c2ccccc12)NC(=O)[C@H](CC(=O)O)NC(=O)CCOCCOCCOCCOCCNC(=O)CCCC[C@@H]1SC[C@@H]2NC(=O)N[C@@H]21)[C@@H](C)O)C(C)C)C(=O)N[C@@H](Cc1ccccc1)C(=O)N[C@@H](Cc1ccc(O)cc1)C(=O)O [Peptide P89] ({Biotin-PEG4}-DWTLFLFVFNLEWEDLFY-OH; C-terminus assumed),some level of cross-reactivity
2,CC[C@H](C)[C@H](NC(=O)[C@H](CCC(=O)O)NC(=O)[C@H](Cc1ccc(O)cc1)NC(=O)[C@H](Cc1ccc(O)cc1)NC(=O)[C@H](CCSC)NC(=O)[C@H](Cc1c[nH]cn1)NC(=O)[C@H](CCSC)NC(=O)[C@H](Cc1c[nH]c2ccccc12)NC(=O)[C@H](CCCCN)NC(=O)[C@H](CC(=O)O)NC(=O)[C@H](Cc1c[nH]c2ccccc12)NC(=O)[C@H](CCC(=O)O)NC(=O)[C@@H](NC(=O)[C@H](CCCCN)NC(=O)CCOCCOCCOCCOCCNC(=O)CCCC[C@@H]1SC[C@@H]2NC(=O)N[C@@H]21)[C@@H](C)O)C(=O)N[C@@H](Cc1ccccc1)C(=O)N[C@@H](Cc1ccc(O)cc1)C(=O)N[C@@H](CCC(=O)O)C(=O)N[C@@H](CC(=O)O)C(=O)O [Peptide P100] ({Biotin-PEG4}-KTEWDKWMHMYYEIFYED-OH; C-terminus assumed),some level of cross-reactivity
3,CC[C@H](C)[C@H](NC(=O)[C@H](CC(=O)O)NC(=O)[C@H](Cc1ccccc1)NC(=O)[C@H](CC(N)=O)NC(=O)CCOCCOCCOCCOCCNC(=O)CCCC[C@@H]1SC[C@@H]2NC(=O)N[C@@H]21)C(=O)N[C@@H](CC(C)C)C(=O)N[C@@H](CC(C)C)C(=O)N[C@@H](Cc1ccccc1)C(=O)N[C@H](C(=O)N[C@@H](Cc1ccccc1)C(=O)N[C@@H](CC(N)=O)C(=O)N[C@@H](Cc1ccc(O)cc1)C(=O)N[C@@H](CCC(=O)O)C(=O)N[C@@H](CCSC)C(=O)N[C@@H](CCC(=O)O)C(=O)N[C@@H](CC(=O)O)C(=O)N[C@@H](CCCCN)C(=O)N[C@@H](Cc1ccccc1)C(=O)N[C@@H](Cc1ccc(O)cc1)C(=O)O)C(C)C [Peptide P168] ({Biotin-PEG4}-NFDILLFVFNYEMEDKFY-OH; C-terminus assumed),some level of cross-reactivity
4,CC[C@H](C)[C@H](NC(=O)[C@@H](NC(=O)[C@H](Cc1ccc(O)cc1)NC(=O)[C@H](Cc1ccccc1)NC(=O)[C@H](Cc1ccc(O)cc1)NC(=O)[C@@H](NC(=O)[C@H](CCC(=O)O)NC(=O)[C@H](CCSC)NC(=O)[C@H](Cc1c[nH]c2ccccc12)NC(=O)[C@H](Cc1c[nH]cn1)NC(=O)[C@H](CO)NC(=O)[C@H](Cc1ccccc1)NC(=O)[C@H](CCSC)NC(=O)[C@H](CC(=O)O)NC(=O)[C@H](Cc1c[nH]c2ccccc12)NC(=O)[C@H](CC(=O)O)NC(=O)[C@@H](NC(=O)[C@H](CCCCN)NC(=O)CCOCCOCCOCCOCCNC(=O)CCCC[C@@H]1SC[C@@H]2NC(=O)N[C@@H]21)[C@@H](C)O)[C@@H](C)CC)C(C)C)C(=O)O [Peptide P180] ({Biotin-PEG4}-KTDWDMFSHWMEIYFYVI-OH; C-terminus assumed),some level of cross-reactivity
